± gives the expanded uncertainty stated by the source.
Assay: mn = molality of the nth substance listed, in mol/kg
Conditions: 101.33 kPa, Liquid; for speed of sound: Frequency=3 MHz, Linear variable-path acoustic interferometer; for mass density: Pycnometric method; for viscosity: Capillary tube (Ostwald / Ubbelohde) method

## N[C@@H](Cc1ccccc1)C(=O)O [L-phenylalanine] + O
293.15 K, m1 = 0.0249
  speed of sound: 1488.8 ± 2.5 m/s
  mass density: 999.4 ± 0.35 kg/m3
293.15 K, m1 = 0.0498
  speed of sound: 1493 ± 2.5 m/s
  mass density: 1000.55 ± 0.35 kg/m3
293.15 K, m1 = 0.0749
  speed of sound: 1496.2 ± 2.5 m/s
  mass density: 1001.71 ± 0.35 kg/m3
293.15 K, m1 = 0.0999
  speed of sound: 1498.3 ± 2.5 m/s
  mass density: 1002.88 ± 0.35 kg/m3
293.15 K, m1 = 0.125
  speed of sound: 1499.4 ± 2.5 m/s
  mass density: 1004.04 ± 0.35 kg/m3
293.15 K, m1 = 0.1499
  speed of sound: 1499.4 ± 2.5 m/s
  mass density: 1005.2 ± 0.35 kg/m3
298.15 K, m1 = 0.0249
  viscosity: 0.9038 ± 0.019 mPa·s
  speed of sound: 1501.9 ± 2.5 m/s
  mass density: 998.23 ± 0.37 kg/m3
298.15 K, m1 = 0.0498
  viscosity: 0.9168 ± 0.019 mPa·s
  speed of sound: 1505.9 ± 2.5 m/s
  mass density: 999.39 ± 0.37 kg/m3
298.15 K, m1 = 0.0749
  viscosity: 0.9299 ± 0.02 mPa·s
  speed of sound: 1509 ± 2.5 m/s
  mass density: 1000.55 ± 0.37 kg/m3
298.15 K, m1 = 0.0999
  viscosity: 0.9431 ± 0.02 mPa·s
  speed of sound: 1511 ± 2.5 m/s
  mass density: 1001.72 ± 0.37 kg/m3
298.15 K, m1 = 0.125
  viscosity: 0.9561 ± 0.02 mPa·s
  speed of sound: 1512 ± 2.5 m/s
  mass density: 1002.88 ± 0.37 kg/m3
298.15 K, m1 = 0.1499
  viscosity: 0.9691 ± 0.021 mPa·s
  speed of sound: 1511.9 ± 2.5 m/s
  mass density: 1004.05 ± 0.37 kg/m3
303.15 K, m1 = 0.0249
  viscosity: 0.8083 ± 0.017 mPa·s
  speed of sound: 1513.1 ± 2.5 m/s
  mass density: 996.84 ± 0.4 kg/m3
303.15 K, m1 = 0.0498
  viscosity: 0.819 ± 0.017 mPa·s
  speed of sound: 1516.8 ± 2.5 m/s
  mass density: 998 ± 0.4 kg/m3
303.15 K, m1 = 0.0749
  viscosity: 0.8294 ± 0.018 mPa·s
  speed of sound: 1519.5 ± 2.5 m/s
  mass density: 999.17 ± 0.4 kg/m3
303.15 K, m1 = 0.0999
  viscosity: 0.8399 ± 0.018 mPa·s
  speed of sound: 1521.2 ± 2.5 m/s
  mass density: 1000.34 ± 0.4 kg/m3
303.15 K, m1 = 0.125
  viscosity: 0.8505 ± 0.018 mPa·s
  speed of sound: 1521.8 ± 2.5 m/s
  mass density: 1001.51 ± 0.4 kg/m3
303.15 K, m1 = 0.1499
  viscosity: 0.8605 ± 0.018 mPa·s
  speed of sound: 1521.3 ± 2.5 m/s
  mass density: 1002.68 ± 0.4 kg/m3
308.15 K, m1 = 0.0249
  viscosity: 0.7285 ± 0.015 mPa·s
  speed of sound: 1524.1 ± 2.5 m/s
  mass density: 995.24 ± 0.43 kg/m3
308.15 K, m1 = 0.0498
  viscosity: 0.7372 ± 0.016 mPa·s
  speed of sound: 1527.4 ± 2.5 m/s
  mass density: 996.4 ± 0.43 kg/m3
308.15 K, m1 = 0.0749
  viscosity: 0.7462 ± 0.016 mPa·s
  speed of sound: 1529.8 ± 2.5 m/s
  mass density: 997.58 ± 0.43 kg/m3
308.15 K, m1 = 0.0999
  viscosity: 0.7545 ± 0.016 mPa·s
  speed of sound: 1531.1 ± 2.5 m/s
  mass density: 998.75 ± 0.43 kg/m3
308.15 K, m1 = 0.125
  viscosity: 0.7635 ± 0.016 mPa·s
  speed of sound: 1531.4 ± 2.5 m/s
  mass density: 999.92 ± 0.43 kg/m3
308.15 K, m1 = 0.1499
  viscosity: 0.7722 ± 0.016 mPa·s
  speed of sound: 1530.6 ± 2.5 m/s
  mass density: 1001.09 ± 0.43 kg/m3
313.15 K, m1 = 0.0249
  viscosity: 0.6607 ± 0.014 mPa·s
  speed of sound: 1530.8 ± 2.5 m/s
  mass density: 993.43 ± 0.46 kg/m3
313.15 K, m1 = 0.0498
  viscosity: 0.668 ± 0.014 mPa·s
  speed of sound: 1533.8 ± 2.5 m/s
  mass density: 994.6 ± 0.46 kg/m3
313.15 K, m1 = 0.0749
  viscosity: 0.6749 ± 0.014 mPa·s
  speed of sound: 1535.8 ± 2.5 m/s
  mass density: 995.78 ± 0.46 kg/m3
313.15 K, m1 = 0.0999
  viscosity: 0.682 ± 0.015 mPa·s
  speed of sound: 1536.8 ± 2.5 m/s
  mass density: 996.96 ± 0.46 kg/m3
313.15 K, m1 = 0.125
  viscosity: 0.6897 ± 0.015 mPa·s
  speed of sound: 1536.7 ± 2.5 m/s
  mass density: 998.14 ± 0.46 kg/m3
313.15 K, m1 = 0.1499
  viscosity: 0.6968 ± 0.015 mPa·s
  speed of sound: 1535.7 ± 2.5 m/s
  mass density: 999.32 ± 0.46 kg/m3
318.15 K, m1 = 0.0249
  viscosity: 0.604 ± 0.013 mPa·s
  speed of sound: 1536.5 ± 2.5 m/s
  mass density: 991.43 ± 0.48 kg/m3
318.15 K, m1 = 0.0498
  viscosity: 0.6102 ± 0.013 mPa·s
  speed of sound: 1539.1 ± 2.5 m/s
  mass density: 992.61 ± 0.48 kg/m3
318.15 K, m1 = 0.0749
  viscosity: 0.616 ± 0.013 mPa·s
  speed of sound: 1540.8 ± 2.5 m/s
  mass density: 993.8 ± 0.48 kg/m3
318.15 K, m1 = 0.0999
  viscosity: 0.622 ± 0.013 mPa·s
  speed of sound: 1541.5 ± 2.5 m/s
  mass density: 994.98 ± 0.48 kg/m3
318.15 K, m1 = 0.125
  viscosity: 0.6285 ± 0.013 mPa·s
  speed of sound: 1541.3 ± 2.5 m/s
  mass density: 996.17 ± 0.48 kg/m3
318.15 K, m1 = 0.1499
  viscosity: 0.6346 ± 0.013 mPa·s
  speed of sound: 1540 ± 2.5 m/s
  mass density: 997.36 ± 0.48 kg/m3

From the NIST ThermoML archive (doi:10.1016/j.jct.2013.09.008)
